The results in this text go back to patent US20230303552A1, “ARYLSULFONYL DERIVATIVES AND THEIR USE AS MUSCARINIC ACETYLCHOLINE RECEPTOR M5 INHIBITORS” (Vanderbilt University, priority 2020, published 2023).

The IC50 is the concentration that gives 50% inhibition.

The target of the experiment is T1, human M5 receptors (hM5) (Homo sapiens, UniProt P08912).
T1 construct: expressed in transfected cells
T1 sequence (P08912 1-532): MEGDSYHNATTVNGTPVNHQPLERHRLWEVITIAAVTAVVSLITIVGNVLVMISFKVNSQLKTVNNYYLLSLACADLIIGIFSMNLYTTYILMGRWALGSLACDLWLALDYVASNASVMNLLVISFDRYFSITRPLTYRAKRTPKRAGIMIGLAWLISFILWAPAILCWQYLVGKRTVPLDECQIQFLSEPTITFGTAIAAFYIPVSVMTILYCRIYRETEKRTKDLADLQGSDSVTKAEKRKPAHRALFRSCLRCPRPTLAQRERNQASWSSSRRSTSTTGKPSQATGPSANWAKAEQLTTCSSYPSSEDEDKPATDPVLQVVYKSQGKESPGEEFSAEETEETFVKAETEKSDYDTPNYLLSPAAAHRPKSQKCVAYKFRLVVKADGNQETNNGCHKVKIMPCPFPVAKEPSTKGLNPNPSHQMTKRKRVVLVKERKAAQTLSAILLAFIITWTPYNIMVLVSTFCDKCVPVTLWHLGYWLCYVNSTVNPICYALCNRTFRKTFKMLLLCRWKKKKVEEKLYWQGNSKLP
Briefly: Cell-based functional calcium mobilization assay of mAChR M5 activity (inhibition of EC80 acetylcholine response) in CHO cells. To be noted: CHO cells stably expressing hM5; for IC50: calcium flux (Fluo-4), EC80 acetylcholine addition; for EC80 MIN: minimum of EC80 acetylcholine response, normalized to maximum acetylcholine response. Put shortly: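 CHO cells stably expressing human M5, loaded with Fluo-4 AM in HBSS/20 mM HEPES/2.5 mM probenecid pH 7.4. Compound added 140 s before acetylcholine EC20, then EC80 added 125 s later. Calcium flux normalized to maximal acetylcholine response; IC50 from ten-point curves in the EC80 window.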

Bounds are passed on as bounds.

With `Cc1noc2ncc(S(=O)(=O)N3CC[C@@H](C(=O)Nc4ccc5scnc5c4)C3)cc12` [Compound 149, (R)-N-(benzuo[d]thiazo1-5-yl)-1-((3-methylisoxazolo[5,4-b]pyridin-5-yl)sulfonyl)pyrrolidine-3-carboxamide], the IC50 was over 10 µM and the “EC80 MIN” value amounted to 36%.

With `Cc1nn(C)cc1S(=O)(=O)N1CC[C@H](C(=O)Nc2ccc3scnc3c2)C[C@H]1C` (racemic) [Compound 123, trans-(rac)-N-(benzo[d]thiazol-5-yl)-1-((1,3-dimethyl-1H-pyrazol-4-yl)sulfonyl)-2-methylpiperidine-4-carboxamide], the half-maximal inhibitory concentration (IC50) was determined as 0.174 µM and the “EC80 MIN” value was 3%.

Take `Cn1ncc2cc(S(=O)(=O)N3CCC(C(=O)Nc4ccc5scnc5c4)CC3)cnc21` [Compound 36, N-(benzo[d]thiazol-5-yl)-1-((1-methyl-1H-pyrazolo[3,4-b]pyridin-5-yl)sulfonyl)piperidine-4-carboxamide]: the IC50 was over 10 µM and the “EC80 MIN” value was 40%.

Turning to `O=C(Nc1ccc2scnc2c1)C1CCN(S(=O)(=O)c2ccc3c(c2)OCCO3)CC1` [Compound 48, N-(benzo[d]thiazol-5-yl)-1-((2.3-dihydrobenzo[b][1,4]dioxin-6-yl)sulfonyl)piperidine-4-carboxamide], the IC50 amounted to 1.79 µM and the “EC80 MIN” value is 5%.

`O=C(Nc1ccc2scnc2c1)[C@H]1CCN(S(=O)(=O)c2ccc(Cl)nc2)C[C@@H]1F` (racemic) [Compound 79, trans-(rac)-N-(benzo[d]thiazol-5-yl)-1-((6-chloropyridin-3-yl)sulfonyl)-3-fluoropiperidine-4-carboxamide]: the IC50 was found to be 0.139 µM and the “EC80 MIN” value stood at 2%.

Take `O=C(Nc1ccc2scnc2c1)C1CCN(S(=O)(=O)c2ccc(Cl)nc2)CC1` [Compound 7, N-(benzo[d]thiazol-5-yl)-1-((6-chloropyridin-3-yl)sulfonyl)piperidine-4-carboxamide]: the IC50 was 0.184 µM and the “EC80 MIN” value worked out at 4%.

Take `O=C(Nc1ccc2scnc2c1)C1CCN(S(=O)(=O)c2ccccn2)CC1` [Compound 68, N-(benzo[d]thiazol-5-yl)-1-(pyridin-2-ylsulfonyl)piperidine-4-carboxamide]: the IC50 was over 10 µM and the “EC80 MIN” value was determined as 39%.

On to `CC1Cc2cc(S(=O)(=O)N3CC[C@@H](C(=O)Nc4ccc5scnc5c4)C3)ccc2O1` (mixture of isomers) [Compound 88, (3R)-N-(benzo[d]thiazol-5-yl)-1-((2-methyl-2,3-dihydrobenzofuran-5-yl)sulfonyll)pyrrolidine-3-carboxamide], for which the IC50 was determined as 4.96 µM and the “EC80 MIN” value is reported as 3%.

Consider `CC1(C)COc2ccc(S(=O)(=O)N3CC[C@@H](C(=O)Nc4ccc5scnc5c4)C3)cc21` [Compound 127, (R)-N-(benzo[d]thiazol-5-yl)-1-((3,3-dimethyl-2,3-dihydrobenzofuran-5-yl)sulfonyl)pyrrolidine-3-carboxamide], for which the half-maximal inhibitory concentration (IC50) was over 10 µM and the “EC80 MIN” value came out at 8%.

In the case of `O=C(Nc1ccc2scnc2c1)[C@@H]1CCN(S(=O)(=O)c2cccnc2)C1` [Compound 39, (R)-N-(benzo[d]thiazol-5-yl)-1-(pyridin-3-ylsulfonyl)pyrrolidine-3-carboxamide], the IC50 is over 10 µM and the “EC80 MIN” value is on record as 27%.

`O=C(Nc1ccc2scnc2c1)[C@@H]1CCN(S(=O)(=O)c2ccc(Br)c3c2OCC3)C1` [Compound 60, (R)-N-(benzo[d]thiazol-5-yl)-1-((4-bromo-2,3-dihydrobenzofuran-7-yl)sulfonyl)pyrrolidine-3-carboxamide]: the half-maximal inhibitory concentration (IC50) is over 10 µM and the “EC80 MIN” value came to 31%.

With `Cc1nc(C(F)(F)F)c(S(=O)(=O)N2CCC(C(=O)Nc3ccc4scnc4c3)CC2)s1` [Compound 19, N-(benzo[d]thiazol-5-yl)-1-((2-methyl-4-(trifluoromcthyl)thiazol-5-yl)sulfonyl)piperidine-4-carboxamide], the IC50 was found to be 3.13 µM and the “EC80 MIN” value amounted to 19%.

With `O=C(Nc1ccc2[nH]cnc2c1)C1CCN(S(=O)(=O)c2ccc3c(c2)CCO3)CC1` [Compound 13, N-(1H-benzo[d]imidazol-5-yl)-1-((2,3-dihydrobenzofuran-5-yl)sulfonyl)piperidine-4-carboxamide], the IC50 was over 10 µM and the “EC80 MIN” value turned out to be 22%.

Take `O=C(Nc1ccc2scnc2c1)C1CCN(S(=O)(=O)c2ccccc2C(F)(F)F)CC1` [Compound 64, N-(benzo[d]thiazol-5-yl)-1-((2-(trifluoromethyl)phenyl)sulfonyl)piperidine-4-carboxamide]: the IC50 is over 10 µM and the “EC80 MIN” value worked out at 2%.

On to `C[C@@H]1CN(S(=O)(=O)c2ccc3c(c2)C(C)(C)CO3)C[C@@H]1C(=O)Nc1ccc2scnc2c1` [Compound 129], for which the concentration for half-maximal inhibition (IC50) worked out at 6.49 µM and the “EC80 MIN” value amounted to 4%.

As for `Cc1noc(C)c1S(=O)(=O)N1CCC(C(=O)Nc2ccc3scnc3c2)CC1` [Compound 17, N-(benzo[d]thiazol-5-yl)-1-((3.5-dimcthylisoxazol-4-yl)sulfonyl)piperidine-4-carboxamide], the IC50 was found to be 0.766 µM and the “EC80 MIN” value worked out at 3%.

For `[2H]C1([2H])Oc2ccc(S(=O)(=O)N3CC[C@@H](C(=O)Nc4ccc5scnc5c4)C3)cc2C1([2H])[2H]` [Compound 140], the 50% inhibitory concentration (IC50) came to 0.035 µM and the “EC80 MIN” value stood at 2%.

On to `C[C@@H]1C[C@H](C(=O)Nc2ccc3scnc3c2)CCN1S(=O)(=O)c1ccc2c(c1)CCO2` (racemic) [Compound 97, cis-(rac)-N-(benzo[d]thiazol-5-yl)-1-((2,3-dihydrobenzofuran-5-yl)sulfonyl)-2-methylpiperidine-4-carboxamide], for which the IC50 was found to be 0.159 µM and the “EC80 MIN” value is recorded as 2%.

For the compound `Cc1nn(C)cc1S(=O)(=O)N1CC[C@H](C(=O)Nc2ccc3scnc3c2)[C@H](C)C1` (racemic) [Compound 95, cis-(rac)-,N^_ (benzo[d]thiazol-5-yl)-1-((1,3-dimethyl-1H-pyrazol-4-yl)sulfonyl)-3-methylpiperidine-4-carboxamide], the half-inhibitory concentration (IC50) is 4.49 µM and the “EC80 MIN” value is on record as 5%.

On to `O=C(Nc1ccc2scnc2c1)C1CCN(S(=O)(=O)c2c(Cl)ccc3nonc23)CC1` [Compound 61, N-(benzo[d]thiazol-5-yl)-1-((5-chlorobenzo[c][1,2,5]oxadiazol-4-yl)sulfonyl)piperidine-4-carboxamide], for which the IC50 was over 10 µM and the “EC80 MIN” value was 60%.

For the compound `C[C@H]1CN(S(=O)(=O)c2cccnc2)CC[C@@H]1C(=O)Nc1ccc2scnc2c1` (racemic) [Compound 119, trans-(rac)-N-(benzo[d]thiazol-5-yl)-3-methyl-1-(pyridin-3-ylsulfornyl)piperidine-4-carboxamide], the IC50 was found to be 0.982 µM and the “EC80 MIN” value worked out at 4%.

Regarding `O=C(Nc1ccc2scnc2c1)C1CCN(S(=O)(=O)c2cccc(OC(F)(F)F)c2)CC1` [Compound 30, N-(benzo[d]thiazol-5-yl)-1-((3-(trifluoromethoxy)phenyl)sulfonyl)piperidine-4-carboxamide], the IC50 was over 10 µM and the “EC80 MIN” value is 57%.
